The values below come from PubChem BioAssay (NCI).

The structures appear in SMILES notation.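 Values below derive from 48-hour exposures of cells grown in 96-well plates, with endpoints linearly interpolated between the two concentrations bracketing the appropriate inhibition level. Abbreviation: GI50, concentration required for 50% inhibition of growth. TGI denotes the concentration required for complete inhibition of growth.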

Test systems include A498 renal; HCC-2998 colon; HCT-15 colon; HL-60(TB) leukemia; IGROV1 ovarian; TK-10 renal; HOP-62 NSCLC; HT29 colon; M14 melanoma; NCI-H23 lung; RPMI-8226 leukemia; SK-MEL-28 melanoma.
Common to all, as to test: NCI anticancer screen, dose series, 48 h

With `CN(C)c1ccc(/C=C/c2sc3ccc4ccccc4c3[n+]2C)cc1`, the GI50 in the assay with A498 renal was 0.539 µM; in the assay on HCC-2998 colon, 0.365 µM; in the assay with HCT-15 colon it was 0.692 µM; in the assay on HL-60(TB) leukemia it was 0.33 µM; in the assay on IGROV1 ovarian it was 0.368 µM; in the assay on TK-10 renal, 0.41 µM. Also, the TGI with A498 renal is 2.85 µM; in the assay with HCC-2998 colon, 1.57 µM; in the assay with HCT-15 colon it was greater than 31.5 µM; in the assay with HL-60(TB) leukemia, 1.18 µM; with IGROV1 ovarian it was 1.66 µM; in the assay with TK-10 renal, 1.92 µM.

In the case of `CCC(=O)OCc1ccc2oc(=O)c(C(=O)Oc3cncc(Cl)c3)cc2c1`, the TGI with HCC-2998 colon, with HCT-15 colon, in the assay on HOP-62 NSCLC, with HT29 colon, in the assay with IGROV1 ovarian and in the assay on M14 melanoma was greater than 100 µM each time. In addition, the TGI with NCI-H23 lung, with RPMI-8226 leukemia, in the assay on SK-MEL-28 melanoma and in the assay on TK-10 renal was greater than 100 µM each time.

For the molecule `C=C(C)CCC1CCCCC(CN(C)C)C1=O` (stereo not drawn), the TGI in the assay with A498 renal, in the assay on HCT-15 colon, with HL-60(TB) leukemia, in the assay on HOP-62 NSCLC, in the assay on HT29 colon and in the assay with IGROV1 ovarian was greater than 100 µM throughout. In addition, the TGI in the assay with M14 melanoma, with NCI-H23 lung, with RPMI-8226 leukemia, in the assay with SK-MEL-28 melanoma and in the assay on TK-10 renal was greater than 100 µM each time.

Turning to `Cc1cc(C)c2c(n1)S(=O)(=O)N(CCCN1CCN(c3cccc(C(F)(F)F)c3)CC1)/C(=C(\O)c1ccccc1)C2=O`, the TGI with A498 renal was greater than 100 µM; in the assay on HCT-15 colon, 67 µM; in the assay on HL-60(TB) leukemia, 8.97 µM; with HOP-62 NSCLC, greater than 100 µM; with HT29 colon it was 43.9 µM; with IGROV1 ovarian, 20.5 µM. For the same molecule, the TGI in the assay on M14 melanoma was greater than 100 µM; in the assay on NCI-H23 lung it was 21.7 µM; with SK-MEL-28 melanoma, 57.5 µM; with TK-10 renal it was greater than 100 µM.

Regarding `NC(=O)c1n[nH]n(-c2ccccc2)c1=O`, the TGI with A498 renal, in the assay with HCC-2998 colon, with HCT-15 colon, in the assay on HOP-62 NSCLC, with HT29 colon and in the assay with IGROV1 ovarian was greater than 100 µM in each case. For the same molecule, the TGI in the assay on M14 melanoma, with NCI-H23 lung, in the assay on RPMI-8226 leukemia, with SK-MEL-28 melanoma and in the assay with TK-10 renal was greater than 100 µM each time.

In the case of `CCOC(=O)CCC(C(=O)OCC)n1nc2ccc(Nc3c(C)[n+]([O-])c4cc(Cl)ccc4[n+]3[O-])cc2n1` (stereo not drawn), the TGI in the assay on A498 renal, in the assay with HCT-15 colon, in the assay on HL-60(TB) leukemia, in the assay on HOP-62 NSCLC, in the assay on HT29 colon and in the assay with IGROV1 ovarian was greater than 100 µM in each case. Besides, the TGI with M14 melanoma, in the assay on NCI-H23 lung, with RPMI-8226 leukemia and with TK-10 renal was greater than 100 µM throughout.

`Cc1ccc(/C=C2\NC(=S)N(CN3CCOCC3)C2=O)cc1`: the TGI in the assay with A498 renal, in the assay with HCT-15 colon, with HOP-62 NSCLC, with HT29 colon, with IGROV1 ovarian and in the assay with M14 melanoma was greater than 100 µM in each case. In addition, the TGI in the assay with NCI-H23 lung, in the assay on RPMI-8226 leukemia, in the assay with SK-MEL-28 melanoma and in the assay on TK-10 renal was greater than 100 µM each time.

`CCN1/C(=C/c2ccc3ccccc3[n+]2CC)C=Cc2ccccc21`: the TGI with A498 renal turned out to be 15 µM; in the assay on HCC-2998 colon it was 13.4 µM; with HCT-15 colon, 34.1 µM; with HOP-62 NSCLC it was 13.9 µM; in the assay with HT29 colon it was 11 µM; in the assay with IGROV1 ovarian, 16.4 µM. Moreover, the TGI with M14 melanoma was 12.8 µM; in the assay on NCI-H23 lung, 17.1 µM; in the assay on RPMI-8226 leukemia it was greater than 23.4 µM; in the assay with SK-MEL-28 melanoma, 15.9 µM; with TK-10 renal, 26.4 µM.

Take `c1ccc2c(c1)CCc1c-2n(CCN2CCCCC2)c2ccccc12`: the TGI with HCC-2998 colon was determined as 26.4 µM; in the assay with HCT-15 colon, 22.9 µM; in the assay with HOP-62 NSCLC, 30.1 µM; in the assay with HT29 colon, 22.8 µM; with IGROV1 ovarian, 27.3 µM; with M14 melanoma it was 29.7 µM. Also, the TGI in the assay with NCI-H23 lung came out at 32.1 µM; with RPMI-8226 leukemia it was 40.3 µM; with SK-MEL-28 melanoma, 50.9 µM; in the assay with TK-10 renal, 35.9 µM.

Take `O=C(CCCCCCCCC(=O)NN1C(=O)/C(=C\c2ccc(O)c(O)c2)SC1c1c(O)ccc2ccccc12)NN1C(=O)C(=Cc2ccc(O)c(O)c2)SC1c1c(O)ccc2ccccc12` (stereo not drawn): the TGI with A498 renal was 75.9 µM; in the assay on HCC-2998 colon, greater than 100 µM; in the assay with HCT-15 colon, greater than 100 µM; in the assay with HOP-62 NSCLC, greater than 36.8 µM; with HT29 colon, greater than 100 µM; in the assay with IGROV1 ovarian, greater than 55.5 µM. Further, the TGI was greater than 48.5 µM in the assay with M14 melanoma; 95.1 µM in the assay on NCI-H23 lung; 21.1 µM in the assay on RPMI-8226 leukemia; greater than 100 µM with SK-MEL-28 melanoma; greater than 100 µM with TK-10 renal.

For `COC(=O)C(NC(=O)CNC(=O)CSc1nnc(COc2ccc(Cl)cc2)n1-c1ccccc1)C(C)C` (stereo not drawn), the TGI is 56.7 µM in the assay with A498 renal; 34 µM in the assay on HCC-2998 colon; 48.9 µM in the assay on HCT-15 colon; 92 µM in the assay on HOP-62 NSCLC; 35.3 µM in the assay on HT29 colon; 50.1 µM in the assay with IGROV1 ovarian. Also, the TGI with M14 melanoma is 38.5 µM; in the assay on NCI-H23 lung, 42.8 µM; in the assay on RPMI-8226 leukemia, 46.7 µM; with SK-MEL-28 melanoma, 31.1 µM; in the assay on TK-10 renal, 34.3 µM.

Turning to `OC1C(O)C(O)C(O)C(O)C1O` (stereo not drawn), the TGI in the assay on A498 renal, with HCC-2998 colon, in the assay on HCT-15 colon, in the assay on HOP-62 NSCLC, in the assay on HT29 colon and in the assay with IGROV1 ovarian was greater than 1000 µM each time. Further, the TGI in the assay with M14 melanoma, in the assay on NCI-H23 lung, in the assay on RPMI-8226 leukemia, in the assay with SK-MEL-28 melanoma and in the assay on TK-10 renal was greater than 1000 µM each time.
